In paper PMC9144936, “New Cu^+2 Complexes with N-Sulfonamide Ligands: Potential Antitumor, Antibacterial, and Antioxidant Agents” (Molecules, 2022):

System: Swiss mice
Details: mouse, in vivo, ip, 150 mg/kg/day
Description: This study was carried out for a period of 2 weeks on 10 adult Swiss mice, with 5 males and 5 females.
A subacute toxicity study was carried out for a period of 2 weeks for the C2 complex. In total, 10 adult Swiss mice, 32.26 ± 1.3 g body weight, with 5 males and 5 females, were used. The mice were caged in standard polypropylene cages, in standard laboratory conditions (12 h light/dark cycle, temperature 25 ± 1 °C, and relative humidity 55 ± 5%). Standard lab chow, provided by the “Cantacuzino” National Insitute for Research and Development Bucharest, and water were freely available. All procedures performed on mice complied with the European Directive 2010/63/EU and the national low 43/2014 for Protection of Animals Used for Scientific Purposes. This study was approved by the Bioethical Board of the Faculty of Veterinary Medicine Cluj-Napoca (accord no.290/22.11.2021) and the Veterinary Sanitary Direction and Food Safety (accord no.284/21.12.2021). All mice received i.p. 150 mg complex C2/kg b.w./day, for 2 weeks. […]
The general clinical status and the body weight were recorded daily. […]
The liver and kidneys were also removed. […] To determine the hematological toxicity, erythrogram, leukogram, and thrombogram were assessed using a Diatron Abascus Junior Vet 3.

With “[Cu(N-(5-Ethyl--[1,3,4]-Thiadiazole-2-yl) Naphtalenesulfonamidate)2(py)2(H2O)] [C2]” the clinical changes was “did not undergo clinical changes” and the “histological analyses of kidney and liver” value was “normal structure”.
